Laboratory results reported in patent publication US6391566B1, “Ionotropic human glutamate receptor subunit NR3” (NPS Allelix Corporation, priority 1992, dated 2002).

How the values were obtained:
Type in all cases: cell-based
[1] = target: T1, NR3-1/NMDAR1-3C heteromeric complex (Homo sapiens, UniProt Q05586+Q13224); test: Whole-cell voltage-clamp recording of NMDA-evoked currents in transiently transfected HEK293 cells (heteromeric expression); conditions: 60 μM NMDA
T1 construct: expressed in transfected cells; host or cells: HEK293 (transient, lipofectamine)
T1 sequence (Q13224 27-1484, other chains not shown): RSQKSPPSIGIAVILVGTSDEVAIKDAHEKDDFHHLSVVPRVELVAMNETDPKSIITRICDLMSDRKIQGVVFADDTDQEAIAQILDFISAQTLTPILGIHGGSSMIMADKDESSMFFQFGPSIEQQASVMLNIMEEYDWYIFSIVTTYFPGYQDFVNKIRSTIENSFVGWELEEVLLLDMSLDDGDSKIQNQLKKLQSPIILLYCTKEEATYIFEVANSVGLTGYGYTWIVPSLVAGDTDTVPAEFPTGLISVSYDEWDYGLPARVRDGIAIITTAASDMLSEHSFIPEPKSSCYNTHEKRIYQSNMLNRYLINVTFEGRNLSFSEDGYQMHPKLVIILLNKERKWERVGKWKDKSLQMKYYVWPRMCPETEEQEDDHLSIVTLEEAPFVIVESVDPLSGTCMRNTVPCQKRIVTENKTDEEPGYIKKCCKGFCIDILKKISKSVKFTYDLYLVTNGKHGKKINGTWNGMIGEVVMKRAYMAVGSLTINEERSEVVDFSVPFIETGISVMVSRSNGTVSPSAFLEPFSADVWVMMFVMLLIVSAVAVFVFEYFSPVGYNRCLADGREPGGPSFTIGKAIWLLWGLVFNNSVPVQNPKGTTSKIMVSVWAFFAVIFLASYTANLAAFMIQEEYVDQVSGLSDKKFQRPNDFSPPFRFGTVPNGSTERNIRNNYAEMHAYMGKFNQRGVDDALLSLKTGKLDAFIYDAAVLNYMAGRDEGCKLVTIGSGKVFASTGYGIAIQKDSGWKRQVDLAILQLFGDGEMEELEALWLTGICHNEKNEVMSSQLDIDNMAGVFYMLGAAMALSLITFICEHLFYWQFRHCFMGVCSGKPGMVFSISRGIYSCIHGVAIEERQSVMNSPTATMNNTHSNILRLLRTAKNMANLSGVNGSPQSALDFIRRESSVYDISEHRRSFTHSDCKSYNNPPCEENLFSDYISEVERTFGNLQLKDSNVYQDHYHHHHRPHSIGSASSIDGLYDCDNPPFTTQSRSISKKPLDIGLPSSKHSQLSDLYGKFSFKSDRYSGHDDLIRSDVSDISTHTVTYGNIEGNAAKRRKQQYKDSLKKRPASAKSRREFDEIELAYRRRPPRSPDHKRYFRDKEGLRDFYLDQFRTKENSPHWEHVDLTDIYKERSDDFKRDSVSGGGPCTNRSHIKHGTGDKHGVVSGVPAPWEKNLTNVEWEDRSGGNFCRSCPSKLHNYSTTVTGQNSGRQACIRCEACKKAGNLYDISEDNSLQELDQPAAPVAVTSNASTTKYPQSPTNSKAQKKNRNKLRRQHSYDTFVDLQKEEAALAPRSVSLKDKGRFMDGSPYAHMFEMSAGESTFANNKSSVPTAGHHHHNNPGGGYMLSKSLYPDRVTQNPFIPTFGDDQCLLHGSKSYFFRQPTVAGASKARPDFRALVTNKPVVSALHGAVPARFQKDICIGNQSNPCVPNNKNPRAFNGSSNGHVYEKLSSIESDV
Method: (§1) For transient expression, HEK293 cells were transfected with approximately 0.4 μg DNA (as pcDNA1-Amp/hNR3 or pcDNA1-Amp/hNR1-3C) per 10^5 HEK293 cells, by lipofectamine-mediated DNA transfection according to the manufacturer's (Life Technologies Inc., Gaithersburg, Md.) specifications. In coexpression experiments, i.e. for heteromeric expression of NR3-1 and NMDAR1-3C, the HEK293 cells were similarly transfected with 0.8 μg of a DNA mixture containing pcDNA1-Amp/hNR3 and pcDNA1-Amp/hNR1-3C. Briefly, HEK293 cells were plated at a density of 10^5 cells/dish and then grown for 24 hours in 10% FBS-supplemented MEM medium (Life Technologies Inc., Gaithersburg, Md.). The medium was then removed and cells were washed in OPTI-MEM I medium (Life Technologies Inc.) lacking FBS, prior to transfection. A transfection solution (100 μl ) containing 2-4 μl of lipofectamine and DNA was then applied to the cells. After incubation for 4 hours at 37° C., cells were washed as previously described and then allowed to grow for 48 hours in 10% FBS-supplemented MEM medium containing 50 μM DL-AP5 (2-amino-5-phosphonopentanoic acid) and 50 μM 7-chlorokyneurinic acid prior to electrophysiological recording. […]

NMDAR1-3C = target: T2, NMDAR1-3C (Homo sapiens, UniProt Q05586); test: Whole-cell voltage-clamp recording of NMDA-evoked currents in HEK293 cells transfected with NMDAR1-3C alone; conditions: 60 μM NMDA; HEK293 cells transiently transfected with NMDAR1-3C alone; FIG. 10
T2 construct: expressed in transfected cells; host or cells: HEK293 (transient, lipofectamine)
Method: as §1

NR3 = target: T3, NR3 (Homo sapiens, UniProt Q13224); test: Whole-cell voltage-clamp recording of NMDA-evoked currents in HEK293 cells transfected with NR3 alone; conditions: 60 μM NMDA; HEK293 cells transiently transfected with NR3 alone; FIG. 10
T3 construct: expressed in transfected cells; host or cells: HEK293 (transient, lipofectamine)
T3 sequence (Q13224 27-1484): as the sequence (Q13224 27-1484, other chains not shown) above
Method: as §1

Row | SMILES | block of NMDA-induced currents ([1]; 1 mM MgCl2, HEK293 cells transfected with both NR3-1 and NMDAR1-3C) | NMDA-induced depolarizations ([1]; HEK293 cells transiently transfected with both NR3-1 and NMDAR1-3C, FIG. 10) | NMDA-induced depolarizations (NMDAR1-3C) | NMDA-induced depolarizations (NR3)
1 | [Cl-].[Cl-].[Mg+2] [MgCl2] | blocked |  |  | 
2 | CN[C@H](CC(=O)O)C(=O)O [NMDA, N-methyl-D-aspartate] |  | NMDA-induced depolarizations were, however, observed | No NMDA-induced depolarizations were observed | No NMDA-induced depolarizations were observed
